{"source": "patent US6656956B2", "about": "“Benzimidazole derivatives, processes for preparing them and their use as pharmaceutical compositions” (Boehringer Ingelheim Pharma KG, priority 2001, dated 2003)", "note": "Structures can show the parent of a compound that is named as a salt."}
{"biological_target": "T1, rh beta tryptase (Homo sapiens, UniProt Q15661)", "T1 construct": "purchased Promega", "T1 sequence (Q15661 31-275)": "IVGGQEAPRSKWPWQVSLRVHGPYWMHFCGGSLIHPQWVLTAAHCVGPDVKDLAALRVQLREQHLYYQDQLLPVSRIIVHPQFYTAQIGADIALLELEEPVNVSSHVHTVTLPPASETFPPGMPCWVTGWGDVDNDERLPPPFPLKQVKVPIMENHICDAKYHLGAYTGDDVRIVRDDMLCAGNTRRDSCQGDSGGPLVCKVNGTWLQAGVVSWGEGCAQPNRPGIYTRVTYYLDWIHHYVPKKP", "assay": "tryptase inhibition in vitro test (cleavage of N-p-tosyl-Gly-Pro-Lys-para-nitroaniline, p-nitroaniline measured at 405 nm)", "type": "biochemical", "conditions": "rh beta tryptase 0.91 U/ml, substrate 0.6 mM, Tris HCl buffer with calcium and heparin, pH 7.4, 37° C., 5 minutes incubation; read-out: Tryptase-inhibiting activity", "description": "The compounds according to the invention are characterised by their tryptase-inhibiting activity. This ability to inhibit tryptase was investigated using the test described below.\nThe measurement is carried out in Tris HCl buffer (100 mM), which additionally contains calcium (5 mM) and heparin ([…]), at pH 7.4. The standard used is rh beta tryptase which may be obtained commercially from Promega, for example. The substrate used is N-p-tosyl-Gly-Pro-Lys-para-nitroaniline in a concentration of 0.6 mM. The substrate is digested with tryptase to form p-nitroaniline which can be measured at 405 nm. Usually, an incubation period of 5 minutes and an incubation temperature of 37° C. are chosen. The enzyme activity used is 0.91 U/ml. The measurements are carried out in an Autoanalyser (Cobas Bio) made by Hofmann LaRoche. The potential inhibitory substances are used in concentrations of 10 μM in the screening, the inhibition of the tryptase being given in percent. The IC50 is determined at over 70% inhibition (concentration at which 50% of the enzyme activity is inhibited). After 5 minutes' pre-incubation of the potential inhibitory substances, the substrate is added to start the reaction, the formation of p-nitroaniline being taken as a measurement of the enzyme activity after 5 minutes, after testing the linearity.", "units": {"IC50": "nM"}}
{"smiles": "Cn1c(CCc2ccc(C(=N)N)cc2)nc2cc(N(Cc3cccc4ccccc34)C(=O)CN3CCC(Nc4ccccc4)CC3)ccc21", "note": "[Example 1, N-{2-[2-(4-Amidinophenyl)-ethyl]-1-methyl-benzimidazol-5-yl}-N-[naphth-1-ylmethyl]-2-(4-phenylamino-piperid-1-yl)-acetamide, Dihydrochloride]", "IC50": "4 to 30"}
{"smiles": "CN(CCCO)C1CCN(CC(=O)N(Cc2cccc3ccccc23)c2ccc3c(c2)nc(CCc2ccc(C(=N)N)cc2)n3C)CC1", "note": "[Example 2, N-{2-[2-(4-Amidinophenyl)-ethyl]-1-methyl-benzimidazol-5-yl}-N-[naphth-1-ylmethyl]-2-{4-[N-methyl-N-(3-hydroxypropyl)-amino]-piperid-1-yl}-acetamide, Trihydrochloride]", "IC50": "4 to 30"}
{"smiles": "Cn1c(CCc2ccc(C(=N)N)cc2)nc2cc(N(Cc3ccc(C(C)(C)C)cc3)C(=O)CN3CCC(Nc4ccccn4)CC3)ccc21", "note": "[Example 3, N-{2-[2-(4-Amidinophenyl)-ethyl]-1-methyl-benzimidazol-5-yl}-N-(4-tert-butylphenylmethyl)-2-[4-(2-pyridylamino)-piperid-1-yl]-acetamide, Dihydrochloride]", "IC50": "4 to 30"}
{"smiles": "Cn1c(CCc2ccc(C(=N)N)cc2)nc2cc(N(Cc3cccc4ccccc34)C(=O)NCc3ccccc3)ccc21", "note": "[Example 5, N-{2-[2-(4-Amidinophenyl)-ethyl]-1-methyl-benzimidazol-5-yl}-N-(naphth-1-ylmethyl)-N′-benzyl-urea, Hydrochloride]", "IC50": "31 to 1000"}
{"smiles": "Cn1c(CCc2ccc(C(=N)N)cc2)nc2cc(N(Cc3cccc4ccccc34)C(=O)CN3CCC(Nc4ccccn4)CC3)ccc21", "note": "[Example 6, N-{2-[2-(4-Amidinophenyl)-ethyl]-1-methyl-benzimidazol-5-yl}-N-[naphth-1-ylmethyl]-2-[4-(2-pyridylamino-piperid-1-yl]-acetamide, dihydrochloride]", "IC50": "0.5 to 3"}
{"smiles": "Cn1c(CCc2ccc(C(=N)N)cc2)nc2cc(N(Cc3cccc4ccccc34)C(=O)CN3CCC(NC(=O)c4ccccn4)CC3)ccc21", "note": "[Example 7, N-{2-[2-(4-Amidinophenyl)-ethyl]-1-methyl-benzimidazol-5-yl}-N-[naphth-1-ylmethyl]-2-[4-(2-pyridylcarboxylic acid amide)-piperid-1-yl]-acetamide, dihydrochloride]", "IC50": "4 to 30"}
{"smiles": "Cn1c(CCc2ccc(C(=N)N)cc2)nc2cc(N(Cc3cccc4ccccc34)C(=O)CN3CCC(NC(=O)c4ccccc4)CC3)ccc21", "note": "[Example 8, N-{2-[2-(4-Amidinophenyl)-ethyl]-1-methyl-benzimidazol-5-yl}-N-[naphth-1-ylmethyl]-2-[4-benzoic acid amide-piperid-1-yl]-acetamide, dihydrochloride]", "IC50": "4 to 30"}
{"smiles": "Cn1c(CCc2ccc(C(=N)N)cc2)nc2cc(N(Cc3cccc4ccccc34)C(=O)CN3CCC(Cc4ccccc4)CC3)ccc21", "note": "[Example 9, N-{2-[2-(4-Amidinophenyl)-ethyl]-1-methyl-benzimidazol-5-yl}-N-[naphth-1-ylmethyl]-2-[4-(benzyl)-piperid-1-yl]-acetamide, dihydrochloride]", "IC50": "4 to 30"}
{"smiles": "Cn1c(CCc2ccc(C(=N)N)cc2)nc2cc(N(Cc3cccc4ccccc34)C(=O)CN3CCC(Nc4ccc(Cl)cc4)CC3)ccc21", "note": "[Example 10, N-{2-[2-(4-Amidinophenyl)-ethyl]-1-methyl-benzimidazol-5-yl}-N-[naphth-1-ylmethyl]-2-[4-(4-chlorophenylamino)-piperid-1-yl]-acetamide, dihydrochloride]", "IC50": "0.5 to 3"}
{"smiles": "Cn1c(CCc2ccc(C(=N)N)cc2)nc2cc(N(Cc3cccc4ccccc34)C(=O)CN3CCC(Nc4cccc(Cl)c4)CC3)ccc21", "note": "[Example 11, N-{2-[2-(4-Amidinophenyl)-ethyl]-1-methyl-benzimidazol-5-yl}-N-[naphth-1-ylmethyl]-2-[4-(3-chlorophenylamino)-piperid-1-yl]-acetamide, dihydrochloride]", "IC50": "0.5 to 3"}
{"smiles": "Cn1c(CCc2ccc(C(=N)N)cc2)nc2cc(N(Cc3cccc4ccccc34)C(=O)CN3CCC(Nc4ccccc4Cl)CC3)ccc21", "note": "[Example 12, N-{2-[2-(4-Amidinophenyl)-ethyl]-1-methyl-benzimidazol-5-yl}-N-[naphth-1-ylmethyl]-2-[4-(2-chlorophenylamino)-piperid-1-yl]-acetamide, dihydrochloride]", "IC50": "0.5 to 3"}
{"smiles": "CN(C)c1ccc(NC2CCN(CC(=O)N(Cc3cccc4ccccc34)c3ccc4c(c3)nc(CCc3ccc(C(=N)N)cc3)n4C)CC2)cc1", "note": "[Example 13, N-{2-[2-(4-Amidinophenyl)-ethyl]-1-methyl-benzimidazol-5-yl}-N-[naphth-1-ylmethyl]-2-[4-(4-dimethylaminophenyl-amino)-piperid-1-yl]-acetamide, trihydrochloride]", "IC50": "4 to 30"}
{"smiles": "COc1ccc(NC2CCN(CC(=O)N(Cc3cccc4ccccc34)c3ccc4c(c3)nc(CCc3ccc(C(=N)N)cc3)n4C)CC2)cc1", "note": "[Example 14, N-{2-[2-(4-Amidinophenyl)-ethyl]-1-methyl-benzimidazol-5-yl}-N-[naphth-1-ylmethyl]-2-[4-(4-methoxyphenylamino)-piperid-1-yl]-acetamide, dihydrochloride]", "IC50": "4 to 30"}
{"smiles": "Cn1c(CCc2ccc(C(=N)N)cc2)nc2cc(N(Cc3cccc4ccccc34)C(=O)CN3CCC(N)CC3)ccc21", "note": "[Example 15, N-{2-[2-(4-Amidinophenyl)-ethyl]-1-methyl-benzimidazol-5-yl}-N-[naphth-1-ylmethyl]-2-[4-amino-piperid-1-yl]-acetamide, trihydrochloride]", "IC50": "4 to 30"}
{"smiles": "Cn1c(CCc2ccc(C(=N)N)cc2)nc2cc(N(Cc3cccc4ccccc34)C(=O)CN3CCC(Oc4ccccn4)CC3)ccc21", "note": "[Example 16, N-{2-[2-(4-Amidinophenyl)-ethyl]-1-methyl-benzimidazol-5-yl}-N-[naphth-1-ylmethyl]-2-[4-(2-pyridinoxy)-piperid-1-yl]-acetamide, dihydrochloride]", "IC50": "4 to 30"}
{"smiles": "Cn1c(CCc2ccc(C(=N)N)cc2)nc2cc(N(Cc3cccc4ccccc34)C(=O)CN3CCC(Nc4ccc(OCc5ccccc5)cc4)CC3)ccc21", "note": "[Example 17, N-{2-[2-(4-Amidinophenyl)-ethyl]-1-methyl-benzimidazol-5-yl}-N-[naphth-1-ylmethyl]-2-[4-(4-benzyloxy-phenylamino)-piperid-1-yl]-acetamide, dihydrochloride]", "IC50": "4 to 30"}
{"smiles": "Cn1c(CCc2ccc(C(=N)N)cc2)nc2cc(N(Cc3cccc4ccccc34)C(=O)CN3CCC(Nc4ccc(O)cc4)CC3)ccc21", "note": "[Example 18, N-{2-[2-(4-Amidinophenyl)-ethyl]-1-methyl-benzimidazol-5-yl}-N-[naphth-1-ylmethyl]-2-[4-(4-hydroxyphenylamino)-piperid-1-yl]-acetamide, dihydrochloride]", "IC50": "4 to 30"}
{"smiles": "CN(c1ccccn1)C1CCN(CC(=O)N(Cc2cccc3ccccc23)c2ccc3c(c2)nc(CCc2ccc(C(=N)N)cc2)n3C)CC1", "note": "[Example 19, N-{2-[2-(4-Amidinophenyl)-ethyl]-1-methyl-benzimidazol-5-yl}-N-[naphth-1-ylmethyl]-2-[4-(2-pyridyl-N-methyl-amino)-piperid-1-yl]-acetamide, dihydrochloride]", "IC50": "4 to 30"}
{"smiles": "Cn1c(CCc2ccc(C(=N)N)cc2)nc2cc(N(Cc3cccc4ccccc34)C(=O)CN3CCC(Cc4ccccn4)CC3)ccc21", "note": "[Example 20, N-{2-[2-(4-Amidinophenyl)-ethyl]-1-methyl-benzimidazol-5-yl}-N-[naphth-1-ylmethyl]-2-[4-(2-pyridylmethyl)-piperid-1-yl]-acetamide, dihydrochloride]", "IC50": "4 to 30"}
{"smiles": "CCOC(=O)CCN(C)C1CCN(CC(=O)N(Cc2cccc3ccccc23)c2ccc3c(c2)nc(CCc2ccc(C(=N)N)cc2)n3C)CC1", "note": "[Example 21, N-{2-[2-(4-Amidinophenyl)-ethyl]-1-methyl-benzimidazol-5-yl}-N-[naphth-1-ylmethyl]-2-[4-(ethyl N-methyl-N-propionate)-piperid-1-yl]-acetamide, trihydrochloride]", "IC50": "4 to 30"}
{"smiles": "Cn1c(CCc2ccc(C(=N)N)cc2)nc2cc(N(Cc3cccc4ccccc34)C(=O)CN3CCC(Nc4ccc5ccccc5c4)CC3)ccc21", "note": "[Example 22, N-{2-[2-(4-Amidinophenyl)-ethyl]-1-methyl-benzimidazol-5-yl}-N-[naphth-1-ylmethyl]-2-[4-(2-naphthylamino)-piperid-1-yl]-acetamide, dihydrochloride]", "IC50": "0.5 to 3"}
{"smiles": "Cn1c(CCc2ccc(C(=N)N)cc2)nc2cc(N(Cc3cccc4ccccc34)C(=O)CN3CCC(Nc4ccc(-c5ccccc5)cc4)CC3)ccc21", "note": "[Example 23, N-{2-[2-(4-Amidinophenyl)-ethyl]-1-methyl-benzimidazol-5-yl}-N-[naphth-1-ylmethyl]-2-[4-(4-biphenylamino)-piperid-1-yl]-acetamide, dihydrochloride]", "IC50": "4 to 30"}
{"smiles": "Cn1c(CCc2ccc(C(=N)N)cc2)nc2cc(N(Cc3cccc4ccccc34)C(=O)CN3CCC(C(=O)c4ccccc4)CC3)ccc21", "note": "[Example 24, N-{2-[2-(4-Amidinophenyl)-ethyl]-1-methyl-benzimidazol-5-yl}-N-[naphth-1-ylmethyl]-2-[4-(phenylcarbonyl)-piperid-1-yl]-acetamide, dihydrochloride]", "IC50": "0.5 to 3"}
